We go through 22 molecules from US20220396565A1 (Hoffmann-La Roche Inc., priority 2020, published 2022).

Where a name gives a salt, the structure may show the parent alone. Read-outs that look alike come from different tables or passages of the source.

This test has as its system Acinetobacter baumannii ATCC17961. Kind of test: Antimicrobial susceptibility testing: 90% growth inhibitory concentration (IC90) determination, Iso-Sensitest broth. Format: cell-based. Conditions: Acinetobacter baumannii. As to the method:
The in vitro antimicrobial activity of the compounds was determined according to the following procedure:
The assay used a 10-points Iso-Sensitest broth medium to measure quantitatively the in vitro activity of the compounds against Acinetobacter baumannii ATCC17978 or ATCC17961.
Stock compounds in DMSO were serially twofold diluted (e.g. range from 10 to 0.02 μM final concentration) in 384 wells microtiter plates and inoculated with 49 μl the bacterial suspension in Iso-Sensitest medium to have a final cell concentration of ˜5×10^(5) CFU/ml in a final volume/well of 50 ul/well. Microtiter plates were incubated at 35±2° C.
Bacterial cell growth was determined with the measurement of optical density at k=600 nm each 20 minutes over a time course of 16 h. Growth inhibition was calculated during the logarithmic growth of the bacterial cells with determination of the concentration inhibiting 50% (IC50) and 90% (IC90) of the growth.
Table 1 provides the 90% growth inhibitory concentrations (IC90) in micromoles per liter of the compounds of present invention obtained against the strain Acinetobacter baumannii ATCC17978 or ATCC17961.

Setting [1] is: ATCC17961, 90% growth inhibitory concentration, Acinetobacter baumannii ATCC17961, Iso-Sensitest broth, read-out: ATCC 17961 IC90.
The mark [2] stands for this setting: ATCC17961, read-out: ATCC 17961 IC90.

One may read the IC90 as the point of the concentration-response curve where the effect stands at 90%. `Cn1c(-c2ccc(OC(F)F)cc2F)cnc1C(=O)Nc1ccc(C(=O)N2CCN(C(=O)CC3CNC3)CC2)c(Cl)c1` [Example 178, N-[4-[4-[2-(azetidin-3-yl)acetyl]piperazine-1-carbonyl]-3-chloro-phenyl]-5-[4-(difluoromethoxy)-2-fluoro-phenyl]-1-methyl-imidazole-2-carboxamide formate]: the IC90 under setting [1] was 70 nM. Turning to `COc1ccc(-c2cnc(C(=O)Nc3ccc(C(=O)N4CCC(C(=O)N5CCC(N)CC5)CC4)c(Cl)c3)n2C)c(F)c1F` [Example 39, N-[4-[4-(4-aminopiperidine-1-carbonyl)piperidine-1-carbonyl]-3-chloro-phenyl]-5-(2,3-difluoro-4-methoxy-phenyl)-1-methyl-imidazole-2-carboxamide formate], under setting [1], the IC90 was determined as 70 nM.

For the molecule `Cn1c(-c2ccc(OCC#N)c(F)c2F)cnc1C(=O)Nc1ccc(C(=O)N2CCN(C(=O)[C@@H]3CCCCN3)CC2)c(Cl)c1` [Example 211, (S)-N-(3-chloro-4-(4-(piperidine-2-carbonyl)piperazine-1-carbonyl)phenyl)-5-(4-(cyanomethoxy)-2,3-difluorophenyl)-1-methyl 1H-imidazole-2-carboxamide formate], the IC90 under setting [2] was 50 nM. `Cn1c(-c2ccc(OCC#N)c(Cl)c2F)cnc1C(=O)Nc1ccc(C(=O)N2CCN(C(=O)C3CCNCC3)CC2)c(Cl)c1` [Example 268, 5-[3-chloro-4-(cyanomethoxy)-2-fluoro-phenyl]-N-[3-chloro-4-[4-(piperidine-4-carbonyl)piperazine-1-carbonyl]phenyl]-1-methyl-imidazole-2-carboxamide]: the IC90 under setting [1] is 70 nM. `COc1ccc(-c2cnc(C(=O)Nc3ccc(C(=O)N4CCC(C(=O)N[C@@H](C)CN)CC4)c(Cl)c3)n2C)c(F)c1F` [Example 28, N-[(1S)-2-Amino-1-methyl-ethyl]-1-[2-chloro-4-[[5-(2,3-difluoro-4-methoxy-phenyl)-1-methyl-imidazole-2-carbonyl]amino]benzoyl]piperidine-4-carboxamide trifluoroacetate]: the IC90 under setting [2] worked out at 170 nM. For the molecule `COc1ccc(-c2cnc(C(=O)Nc3ccc(C(=O)N4CCN(S(=O)(=O)CCN)CC4)c(Cl)c3)n2C)c(F)c1F` [Example 239, N-[4-[4-(2-aminoethylsulfonyl)piper-razine-1-carbonyl]-3-chloro-phenyl]-5-(2,3-difluoro-4-methoxy-phenyl)-1-methyl-imidazole-2-carboxamide], the IC90 under setting [1] came to 150 nM. For `Cn1c(-c2ccc(OCF)c(F)c2F)cnc1C(=O)Nc1ccc(C(=O)N2CCC(C(=O)N[C@@H]3CCNC3)CC2)c(Cl)c1` [Example 90, (R)-1-(2-chloro-4-(5-(2,3-difluoro-4-(fluoromethoxy)phenyl)-1-methyl-1H-imidazole-2-carboxamido)benzoyl)-N-(pyrrolidin-3-yl)piperidine-4-carboxamide 2,2,2-trifluoroacetate], under setting [1], the IC90 was determined as 40 nM.

With `Cn1c(-c2ccc(OC(F)F)cc2F)cnc1C(=O)Nc1ccc(C(=O)N2CCN(C(=O)C[C@@H]3CCCN3)CC2)c(Cl)c1` [Example 159, N-[3-chloro-4-[4-[2-[(2S)-pyrrolidin-2-yl]acetyl]piperazine-1-carbonyl]phenyl]-5-[4-(difluoromethoxy)-2-fluoro-phenyl]-1-methyl-imidazole-2-carboxamide formate], the IC90 under setting [1] amounted to 70 nM. On the same count and under the same terms, the same measure for `CN(C)CCN1CCN(C(=O)c2ccc(NC(=O)c3ncc(-c4ccc(Oc5ccccn5)c(F)c4F)n3C)cc2Cl)CC1` [Example 271, N-[3-chloro-4-[4-[2-(dimethylamino)ethyl]piperazine-1-carbonyl]phenyl]-5-[2,3-difluoro-4-(2-pyridyloxy)phenyl]-1-methyl-imidazole-2-carboxamide trifluoroacetate]: 640 nM. In the case of `COc1ccc(-c2cnc(C(=O)Nc3ccc(C(=O)N4CCC(C(=O)NCC5(O)CNC5)CC4)c(Cl)c3)n2C)c(F)c1F` [Example 57, 1-[2-chloro-4-[[5-(2,3-difluoro-4-methoxy-phenyl)-1-methyl-imidazole-2-carbonyl]amino]benzoyl]-N-[(3-hydroxyazetidin-3-yl)methyl]piperidine-4-carboxamide formate], the concentration for an effect of 90% (IC90) under setting [1] was found to be 60 nM. Regarding `Cn1c(-c2ccc(OCF)c(F)c2F)cnc1C(=O)Nc1ccc(C(=O)N2CCN(C(=O)CC3(O)CCNCC3)CC2)c(Cl)c1` [Example 164, N-[3-chloro-4-[4-[2-(4-hydroxy-4-piperidyl)acetyl]piperazine-1-carbonyl]phenyl]-5-[2,3-difluoro-4-(fluoromethoxy)phenyl]-1-methyl-imidazole-2-carboxamide formate], the IC90 under setting [1] was 70 nM. In the case of `CN(C)C(=O)c1ccc(-c2cnc(C(=O)Nc3ccc(C(=O)N4CCN(C(=O)C5CCNCC5)CC4)c(Cl)c3)n2C)c(F)c1F` [Example 263, N-[3-chloro-4-[4-(piperidine-4-carbonyl)piperazine-1-carbonyl]phenyl]-5-[4-(dimethylcarbamoyl)-2,3-difluoro-phenyl]-1-methyl-imidazole-2-carboxamide formate], under setting [1], the IC90 was found to be 6060 nM. Still for that read-out and setting: the same measure for `COc1ccc(-c2cnc(C(=O)Nc3ccc(C(=O)N4CCC(C(=O)NC[C@H](C)N)CC4)c(Cl)c3)n2C)c(F)c1F` [Example 32, N-[(2S)-2-aminopropyl]-1-[2-chloro-4-[[5-(2,3-difluoro-4-methoxy-phenyl)-1-methyl-imidazole-2-carbonyl]amino]benzoyl] piperidine-4-carboxamide]: 80 nM; for `Cn1c(-c2ccc(OCC#N)c(F)c2F)cnc1C(=O)Nc1ccc(C(=O)N2CCN(C(=O)[C@@H]3C[C@H](N)CN3)CC2)c(Cl)c1` [Example 209, N-(4-(4-((2S,4S)-4-aminopyrrolidine-2-carbonyl)piperazine-1-carbonyl)-3-chlorophenyl)-5-(4-(cyanomethoxy)-2,3-difluorophenyl)-1-methyl 1H-imidazole-2-carboxamide]: 80 nM; for `COc1ccc(-c2cnc(C(=O)Nc3ccc(C(=O)N4CC(C(=O)N5CC(CN)C5)C4)c(Cl)c3)n2C)c(F)c1F` [Example 66, N-[4-[3-[3-(aminomethyl)azetidine-1-carbonyl]azetidine-1-carbonyl]-3-chloro-phenyl]-5-(2,3-difluoro-4-methoxy-phenyl)-1-methyl-imidazole-2-carboxamide formate]: 140 nM. Regarding `CN1CCC(NNC(=O)C2CCN(C(=O)c3ccc(NC(=O)c4ncc(-c5ccc(OCF)c(F)c5F)n4C)cc3Cl)CC2)CC1` [Example 52, N-[3-chloro-4-[4-[[(1-methyl-4-piperidyl)amino]carbamoyl]piperidine-1-carbonyl]phenyl]-5-[2,3-difluoro-4-(fluoromethoxy)phenyl]-1-methyl-imidazole-2-carboxamide trifluoroacetate], the IC90 under setting [1] is 130 nM. With `COc1ccc(-c2cnc(C(=O)Nc3ccc(C(=O)N4CCC(C(=O)NC5CNC5)CC4)c(Cl)c3)n2C)c(F)c1F` [Example 250, N-(azetidin-3-yl)-1-[2-chloro-4-[[5-(2,3-difluoro-4-methoxy-phenyl)-1-methyl-imidazole-2-carbonyl]amino]benzoyl] piperidine-4-carboxamide trifluoroacetate], the IC90 under setting [1] was 80 nM.

On to `COc1ccc(-c2cnc(C(=O)Nc3ccc(C(=O)N4CCC(C(=O)NCC5CCN5)CC4)c(Cl)c3)n2C)c(F)c1F` (stereo not shown) [Example 63, N-(azetidin-2-ylmethyl)-1-[2-chloro-4-[[5-(2,3-difluoro-4-methoxy-phenyl)-1-methyl-imidazole-2-carbonyl]amino]benzoyl] piperidine-4-carboxamide formate], for which the IC90 under setting [1] was found to be 90 nM.

With `Cn1c(-c2ccc(OCC#N)c(F)c2F)cnc1C(=O)Nc1ccc(C(=O)N2CCNCC2)c(Cl)c1` [Example 14, N-[3-chloro-4-(piperazine-1-carbonyl)phenyl]-5-[4-(cyanomethoxy)-2,3-difluoro-phenyl]-1-methyl-imidazole-2-carboxamide], under setting [1], the IC90 was determined as 130 nM.

As to `CN(C)CCN1CCN(C(=O)c2ccc(NC(=O)c3ncc(-c4ccc(Oc5ccncc5)c(F)c4F)n3C)cc2Cl)CC1` [Example 272, N-[3-chloro-4-[4-[2-(dimethylamino)ethyl]piperazine-1-carbonyl]phenyl]-5-[2,3-difluoro-4-(4-pyridyloxy)phenyl]-1-methyl-imidazole-2-carboxamide trifluoroacetate], under setting [1], the IC90 amounted to 880 nM. Regarding `Cn1c(-c2ccc(OC(F)F)c(F)c2F)cnc1C(=O)Nc1ccc(C(=O)N2CCC(C(=O)N[C@H]3CCNC3)CC2)c(Cl)c1` [Example 95, (S)-1-(2-chloro-4-(5-(4-(difluoromethoxy)-2,3-difluorophenyl)-1-methyl-1H-imidazole-2-carboxamido)benzoyl)-N-(pyrrolidin-3-yl)piperidine-4-carboxamide formate], the IC90 under setting [1] is 50 nM. Turning to `COc1ccc(-c2cnc(C(=O)Nc3ccc(C(=O)N4CCN(C(=O)C5CCN(CCN)CC5)CC4)c(Cl)c3)n2C)c(F)c1F` [Example 290, N-[4-[4-[1-(2-Aminoethyl)piperidine-4-carbonyl]piperazine-1-carbonyl]-3-chloro-phenyl]-5-(2,3-difluoro-4-methoxy-phenyl)-1-methyl-imidazole-2-carboxamide formate], the IC90 under setting [2] amounted to 50 nM.
